According to PMC9823097, “Dysregulation of PRMT5 in chronic lymphocytic leukemia promotes progression with high risk of Richter’s transformation” (Nature Communications, 2023):

Experiments:
[1] = Pharmacokinetics in dogs (clearance, oral bioavailability); type: in vivo
[2] = molecular target: T1, recombinant human PRMT5/MEP50 (Homo sapiens, UniProt O14744); assay: Filtration binding assay with recombinant human PRMT5/MEP50 (biochemical potency)
Experimental: For biochemical potency and selectivity, PRT382 was solubilized in 100% DMSO and diluted serially threefold. […] Standard reactions were performed in a total volume of 30 μl in assay buffer, with 300 nM histone H4-based AcH4-23 (Anaspec: AS-65002) as substrate. To this was added the PRMT5/MEP50 complex diluted to provide a final assay concentration of 2.5 nM, and the compounds were allowed to preincubate for 20 min at 37 °C. The reaction was initiated by adding S-[3 H-methyl]-adenosyl-L-methionine (PerkinElmer: NET155001MC) to a final concentration of 1 μM. Following a 30 min of incubation at 37 °C, the reaction was stopped by adding 25 μL of 8 M Guanidine HCl. To each reaction, 150 µL of SPA beads suspension (Perkinelmer: RPNQ0012) was added and incubated while shaking at room temperature for 30 min. The plate was centrifuged at 100 xg for 30 s before reading in a scintillation counter. IC50 values were determined by fitting the data to with Hill Slope using GraphPad Prism software (v9.2.0).

[3] = Pharmacokinetics in mice (clearance, oral bioavailability, AUC); type: in vivo
[4] = Pharmacokinetic study, oral gavage to CD-1 mice, blood analyzed by LC-MS/MS; type: in vivo; settings: for peak plasma level: WT CD-1 mice; for DNAUC / blood concentration at time point 0.25 / blood concentration at time point 0.5 / blood concentration at time point 1 h / blood concentration at time point 2 h / blood concentration at time point 4 h / blood concentration at time point 8 h / blood concentration at time point 12 h / blood concentration at time point 24 h / AUC / AUC(0-t) / Cmax / MRT / Tmax / half-life: 1d-single dose, male CD-1 mice, fed, blood analysis; for DNAUC / AUC / AUC(0-t) / Cmax / MRT / Tmax / half-life: 0.5%CMC+0.5%Tween80; for AUC / AUC(0-t) / Cmax / MRT / Tmax / half-life: mouse, whole blood, po
Experimental: For in vitro assays, the compound was stored in a 10 mM solution in DMSO. […] […] Blood was collected at various time points after dosing into EDTA-K2 tubes, placed on ice, and stored at −80 °C prior to analysis by LC-MS/MS. For biochemical potency and selectivity, PRT382 was solubilized in 100% DMSO and diluted serially threefold. For assessment of selectivity, enzyme activity against a panel of 37 methyltransferases was evaluated using 3H-SAM as a radioligand probe with filtration binding. PRT382 was tested in duplicate at a final concentration of 10 µM. The percent of enzyme activity relative to DMSO control condition was determined for each enzyme.

[5] = molecular target: T1, recombinant human PRMT5/MEP50; assay: Filtration binding assay with recombinant human PRMT5/MEP50 (biochemical potency); settings: histone H2A as the protein substrate
JVM-2 = assay: Anti-proliferative activity, MTS assay, JVM-2; type: cell-based; settings: Homo sapiens, DLBCL, read-out: PRT382 IC50 (anti-proliferative)
Experimental: Cell proliferation was assessed via MTS (3-[4,5-dimethylthiazol-2-yl]-5-[3-carboxymethoxyphenyl]-2-[4-sulfophenyl]-2H-tetrazolium) assay (Sigma), using the tetrazolium dye […]. Cell apoptosis was evaluated by Annexin V-FITC or PE and propidium iodide (PI) staining using FC500 cytometer (Beckman-Coulter, Indianapolis, IN) following the manufacturer’s procedure (BD Pharmingen, Billerica, MA)[55]. For cell cycle analysis, cells were fixed with cold ethanol overnight and then stained before analysis with 30 μg/mL propidium iodide (Invitrogen) and 200 μg/mL RNase (Sigma-Aldrich) in 0.1 % v/v Triton X-100 (Sigma-Aldrich). Cell cycle data analysis was performed using ModFit LT software (Verity Software House, Topsham, ME).

[6] = Pharmacokinetics in rats (clearance, oral bioavailability); type: in vivo

T1 sequence (O14744 whole entry): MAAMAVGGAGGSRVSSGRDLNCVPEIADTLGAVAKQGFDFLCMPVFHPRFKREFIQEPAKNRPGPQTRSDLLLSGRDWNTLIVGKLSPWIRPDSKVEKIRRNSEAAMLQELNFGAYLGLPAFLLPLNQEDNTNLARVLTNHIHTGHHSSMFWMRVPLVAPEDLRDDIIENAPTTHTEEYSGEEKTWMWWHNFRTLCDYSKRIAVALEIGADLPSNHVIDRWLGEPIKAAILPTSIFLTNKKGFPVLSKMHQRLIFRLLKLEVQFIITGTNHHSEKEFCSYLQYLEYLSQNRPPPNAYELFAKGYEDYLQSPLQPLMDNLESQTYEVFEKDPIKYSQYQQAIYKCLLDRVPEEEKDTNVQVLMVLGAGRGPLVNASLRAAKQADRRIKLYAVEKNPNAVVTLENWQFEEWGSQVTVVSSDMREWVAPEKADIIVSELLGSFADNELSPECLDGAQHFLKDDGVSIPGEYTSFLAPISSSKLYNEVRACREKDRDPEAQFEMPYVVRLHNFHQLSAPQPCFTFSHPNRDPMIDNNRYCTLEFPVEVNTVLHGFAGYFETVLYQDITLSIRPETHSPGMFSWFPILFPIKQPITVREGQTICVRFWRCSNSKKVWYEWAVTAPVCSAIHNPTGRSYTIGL
T1 sequence (Q9BQA1 whole entry partner): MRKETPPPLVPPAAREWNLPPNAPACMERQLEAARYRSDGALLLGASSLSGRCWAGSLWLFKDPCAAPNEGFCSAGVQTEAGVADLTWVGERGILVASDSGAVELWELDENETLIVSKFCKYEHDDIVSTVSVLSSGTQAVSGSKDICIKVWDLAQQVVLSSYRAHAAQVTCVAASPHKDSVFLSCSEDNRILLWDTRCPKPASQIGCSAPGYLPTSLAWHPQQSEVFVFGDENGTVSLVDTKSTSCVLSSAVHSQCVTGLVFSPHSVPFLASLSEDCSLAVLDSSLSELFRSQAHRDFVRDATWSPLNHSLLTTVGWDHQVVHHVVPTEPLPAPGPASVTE

For `CON=c1nc[nH]c2c1ccn2[C@@H]1O[C@H]([C@H](O)c2ccc(Cl)c(Cl)c2)[C@@H](O)[C@H]1O.Cl` [PRT382, (2 R,3 S,4 R,5 R)-2-[(R)-(3,4-dichlorophenyl)-hydroxy-methyl]-5-[(4Z)-4-methoxyimino-1H-pyrrolo[2,3-d]pyrimidin-7-yl]tetrahydrofuran-3,4-diol hydrochloride], the clearance [1] was “low”, the bioavailability ([1]; dog, in vivo, po, read-out: oral bioavailability (F%)) was 70 to 80% and the “PRT382 dose-response signal (Figure 6C; DMSO = 100.515)” value (“PRT382 dose-response signal” below) ([2]; 508.1 pM) was 76.3419. For the same molecule, the “PRT382 dose-response signal” value ([2]; 1.52416e-9 M) was 63.1814, the “PRT382 dose-response signal” value ([2]; 4.57247e-9 M) was 38.5693 and the “PRT382 dose-response signal” value ([2]; 1.37174e-8 M) was 22.7886. For the same molecule, the “PRT382 dose-response signal” value ([2]; 4.11523e-8 M) was 12.7118, the “PRT382 dose-response signal” value ([2]; 1.23457e-7 M) was 6.679 and the “PRT382 dose-response signal” value ([2]; 3.7037e-7 M) was 2.863. For the same molecule, the “PRT382 dose-response signal” value ([2]; 1.11111e-6 M) was 1.261, the “PRT382 dose-response signal” value ([2]; 3.33333e-6 M) was 0.4291 and the “PRT382 dose-response signal” value ([2]; 1e-5 M) was 0.1164. For the same molecule, the clearance [3] was “low”, the bioavailability ([3]; mouse, in vivo, po, read-out: oral bioavailability (F%)) was 70 to 80% and the peak plasma level ([4]; 10 mg/kg oral) was 12 µM. For the same molecule, the DNAUC ([4]; 10 mg/kg) was 1180 kg·ng·h/mL/mg, the “blood concentration at time point 0.25” value ([4]; 10 mg/kg) was 2530 and the “blood concentration at time point 0.5” value ([4]; 10 mg/kg) was 3240. The “blood concentration at time point 1 h” value ([4]; 10 mg/kg) was 2973, the “blood concentration at time point 2 h” value ([4]; 10 mg/kg) was 1733 and the “blood concentration at time point 4 h” value ([4]; 10 mg/kg) was 908. The “blood concentration at time point 8 h” value ([4]; 10 mg/kg) was 530, the “blood concentration at time point 12 h” value ([4]; 10 mg/kg) was 46 and the blood concentration at time point 24 h ([4]; 10 mg/kg) was 0 ng/mL. For the same molecule, the peak plasma level ([4]; 30 mg/kg oral) was 32 µM, the DNAUC ([4]; 30 mg/kg) was 763 kg·ng·h/mL/mg and the “blood concentration at time point 0.25” value ([4]; 30 mg/kg) was 3753. For the same molecule, the “blood concentration at time point 0.5” value ([4]; 30 mg/kg) was 4560, the “blood concentration at time point 1 h” value ([4]; 30 mg/kg) was 4613 and the “blood concentration at time point 2 h” value ([4]; 30 mg/kg) was 2990. For the same molecule, the “blood concentration at time point 4 h” value ([4]; 30 mg/kg) was 2027, the “blood concentration at time point 8 h” value ([4]; 30 mg/kg) was 1350 and the “blood concentration at time point 12 h” value ([4]; 30 mg/kg) was 138. The blood concentration at time point 24 h ([4]; 30 mg/kg) was 0 ng/mL, the peak plasma level ([4]; 100 mg/kg oral) was 75 µM and the DNAUC ([4]; 100 mg/kg) was 1700 kg·ng·h/mL/mg. For the same molecule, the “blood concentration at time point 0.25” value ([4]; 100 mg/kg) was 20267, the “blood concentration at time point 0.5” value ([4]; 100 mg/kg) was 25300 and the “blood concentration at time point 1 h” value ([4]; 100 mg/kg) was 25500. For the same molecule, the “blood concentration at time point 2 h” value ([4]; 100 mg/kg) was 21367, the “blood concentration at time point 4 h” value ([4]; 100 mg/kg) was 16300 and the “blood concentration at time point 8 h” value ([4]; 100 mg/kg) was 10253. The “blood concentration at time point 12 h” value ([4]; 100 mg/kg) was 1753, the blood concentration at time point 24 h ([4]; 100 mg/kg) was 7 ng/mL and the AUC ([4]; 10 mg/kg) was 11700 ng·h/mL. The AUC(0-t) ([4]; 10 mg/kg) was 11600 ng·h/mL, the Cmax ([4]; 10 mg/kg) was 3240 ng/mL and the MRT ([4]; 10 mg/kg) was 3.34 h. For the same molecule, the Tmax ([4]; 10 mg/kg) was 30 min, the half-life ([4]; 10 mg/kg) was 112 min and the AUC ([4]; 30 mg/kg) was 22900 ng·h/mL. It also gave an AUC(0-t) ([4]; 30 mg/kg) of 22300 ng·h/mL, a Cmax ([4]; 30 mg/kg) of 4670 ng/mL and an MRT ([4]; 30 mg/kg) of 4 h. It also gave a Tmax ([4]; 30 mg/kg) of 49.8 min, a half-life ([4]; 30 mg/kg) of 135 min and an AUC ([4]; 100 mg/kg) of 170000 ng·h/mL. It also gave an AUC(0-t) ([4]; 100 mg/kg) of 170000 ng·h/mL, a Cmax ([4]; 100 mg/kg) of 25800 ng/mL and an MRT ([4]; 100 mg/kg) of 4.6 h. The Tmax ([4]; 100 mg/kg) was 40.2 min, the half-life ([4]; 100 mg/kg) was 91.8 min and the IC50 [5] was 2.8 nM. For the same molecule, the IC50 (JVM-2) was 10 nM, the clearance [6] was “low” and the bioavailability ([6]; rat, in vivo, po, read-out: oral bioavailability (F%)) was 70 to 80%.
